# From patent US5801149A, “Inhibition of signal transduction molecules” (Joslin D-abetes Center, Inc., priority 1995, dated 1998)
# Non-standard residues stand in square brackets, D forms with d. Residues, ends and D or L forms follow the SMILES beside them. No end group written: not given here. Pmp = N[C@@H](Cc1ccc(CP(=O)(O)O)cc1)C(=O)O; pY = N[C@@H](Cc1ccc(OP(=O)(O)O)cc1)C(=O)O
# Assays:
# [1] = biological target: T1, association of PtdIns 3-kinase with mT/pp60^c-src complex (Rattus norvegicus, UniProt Q63787); assay: Peptide competition of PtdIns 3-kinase association with immunopurified mT/pp60^c-src; format: biochemical; details: Tran^35 S-labelled Rat-1 whole cell lysates, gel electrophoresis
# T1 construct: from tissue; host or cells: rat liver (PtdIns 3-kinase); mT/pp60c-src complex immunopurified from baculovirus-infected Sf9 cells
# Protocol: (§1) In vitro association of phosphatidylinositol 3-kinase with immunopurified mT/pp60^c-src was assayed as follows. Washed mT/pp60^c-src immune complexes were incubated with purified PtdIns 3-kinase in 750 μl to 1 ml of standard lysis buffer (see above) at 4° C. on a platform rocker. The typical incubation was for 2-3 hours after which the complexes were collected by a brief centrifugation and washed twice with 1% […], twice with 0.5M LiCl in 0.1M Tris-HCl, and twice with TNE.
# (§2) Mammalian whole cell lysates were prepared from confluent 10 cm cell culture plates. The monolayer was washed once with 4° C. PBS and lysed in 1.0 ml of standard lysis buffer. After 10 minutes of incubation on a rocker platform at 4° C., the cells were scrape harvested and lysates cleared by centrifugation at 12,000×g for 5 minutes at 4° C. Lysates were used immediately for association experiments with the immunopurified mT/pp60^c-src complex.
# (§3) Phosphatidylinositol kinase assays and protein kinase assays were performed as follows. Phosphatidylinositol kinase assays were performed directly on the immune complex as described, Whitman et al., 1985, supra; Auger et al., 1989, supra. Sonicated phospholipids were added to the washed beads and the reaction was initiated with the addition of 50 μM ATP, 5-25 μCi [γ^32 P]ATP (3000/Ci/mmole), 5 mM MgCl2 in 20 mM HEPES (pH 7.5). Reactions were incubated for 5 minutes at room temperature. The 50 μl reactions were stopped by the addition of 80 μl of 1M HCl and 1 μl of 500 mM EDTA. The lipids were extracted with 160 μl of methanol:chloroform (1:1) and the organic layer was collected for analysis.
# (§4) The major site of tyrosine phosphorylation on mT by pp60^c-src is tyrosine 315. […]
# (§5) Proteins that were prevented from associating with the mT/pp60^c-src complex by the phosphorylated peptide were also determined. […]
# [2] = test system: association of PtdIns 3-kinase with mT/pp60^c-src complex; assay: as above; format: biochemical; details: peptide pre-incubated with whole cell lysates
# Protocol: as §1, §2, §3, §4, §5
# [3] = biological target: T2, association between pp60^c-grc /mT and PI 3-kinase (Mus musculus, UniProt P26450); details: presence of vanadate; Auger et al., 1992; cited from earlier work
# T2 construct: endogenous in cells; host or cells: Balb/3T3 cells (PI 3-kinase); pp60c-src/mT from baculovirus-infected Sf9 cells
# [4] = biological target: T3, p85 SH2 domains (SH2/GST fusion protein) (Homo sapiens, UniProt P27986); assay: Biospecific interaction analysis of binding to p85 SH2 domains; details: steady-state extrapolation, Scatchard-like analysis
# T3 construct: GST
# Protocol: Therefore, mT-pY315 binding to p85 SH2 domains was analyzed using biospecific interaction analysis as previously described to obtain a more accurate estimate for KD. Series of data were obtained during real-time binding experiments with different concentrations of SH2/GST fusion protein (data not shown).
# [5] = biological target: T2, association between pp60^c-grc /mT and PI 3-kinase; assay: Inhibition of in vitro association of cytosolic PI 3-kinase activity (Balb/3T3 lysate) with immunopurified pp60^c-grc /mT; format: biochemical; details: absence of sodium vanadate (active PTPases); peptide at about ID50
# From the text: Inhibition of the in vitro Association of PI 3-Kinase Activity With Immunopurified pp60^c-grc /mT. Baculovirus-expressed pp60^c-grc /mT complex was immunopurified from infection Sf9 insect cell (Piwnica-Worms et al., 1990, J. Virol. 64:61-68) lysates as described (Auger et al., 1990, 1992, J. BioL Chem. 267:5408-5415). PI 3-kinase activity was obtained directly from crude Balb/3T3 cell lysates as follows. After washing confluent 10 cm dishes with phosphate-buffered saline, Balb/3T3 cells were treated with lysis buffer (137 mM NaCI, 20 mM Hepes, 1 mM MgCl2, 1 mM CaCl2, 10% glycerol, 1% Nonidet P-40, and 1 μg/ml each of leupeptin, pepstatin A and aprotinin, pH 7.25) in the presence or absence of 0.15 mM sodium vanadate. Following a 10 min incubation with lysis buffer, cells were scrape-harvested and particulate debris was removed from the lysates by centrifugation at 12,000×g for 5 min. at 4° C. Varying concentrations of peptides were added directly to the lysates and incubated at 4° C. for 30 min.
# Lysate-peptide mixtures were combined with protein A-Sepharose beads containing immunoprecipitated pp60^c-grc /mT complexes. After washing, the beads were used to catalyze phosphatidylinositol phosphorylation as described (Whitman et al., 1985, Nature 315:239-242; Auger et al., 1989, Cell 57:167-175, 1990, Methods in Inositide Res. pp. 159-166). […]
# [6] = test system: SH2 domains of P13-kinase P85; assay: SH2 domain binding of GXVPML analog peptides (FIG. 2); details: peptide GXVPML, X varied
# From the text: (§6) In these experiments, one or both hydrogen atoms were replaced on Pmp at the carbon position between the phenyl ring and the phosphonate.
# [7] = biological target: SH2 domain of Src (Homo sapiens, UniProt P12931)
# From the text: as §6
# [8] = Amino acid side chain pK titration; format: physicochemical; details: 0.2M solution titrated with 6N HCl
# [9] = biological target: T4, Rat PTPase 1B (Rattus norvegicus, UniProt P20417); assay: PTPase 1B peptide dephosphorylation (Km) and inhibition (Ki); format: biochemical
# T4 construct: cloning the full-length cDNA into the bacterial expression vector, PKK233-2; made in house; host or cells: bacteria (vector PKK233-2)
# T4 sequence (P20417 1-432): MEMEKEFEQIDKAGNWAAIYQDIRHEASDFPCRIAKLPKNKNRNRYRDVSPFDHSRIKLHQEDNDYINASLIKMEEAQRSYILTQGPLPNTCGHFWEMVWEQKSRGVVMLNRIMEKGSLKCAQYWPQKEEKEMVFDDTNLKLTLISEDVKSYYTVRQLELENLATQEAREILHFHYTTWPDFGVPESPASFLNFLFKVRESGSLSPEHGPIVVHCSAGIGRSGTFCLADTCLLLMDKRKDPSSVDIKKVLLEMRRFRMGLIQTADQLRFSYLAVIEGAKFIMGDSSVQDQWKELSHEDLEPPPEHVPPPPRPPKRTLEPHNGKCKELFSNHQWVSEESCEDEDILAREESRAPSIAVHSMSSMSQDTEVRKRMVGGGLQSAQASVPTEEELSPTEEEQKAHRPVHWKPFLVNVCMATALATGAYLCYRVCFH
# Protocol: The phosphopeptides were used as substrates of PTPase 1B, a single catalytic domain PTPase with a […] tissue distribution (Hunter et al., 1989, cell 58:1013). Rat PTPase 1B (Guan et al., 1990, Proc. Natl., Acad. Sci. USA 87:1501) was obtained by PCR and cloning the full-length cDNA into the bacterial expression vector, PKK233-2.
# Sequence specificity for peptide dephosphorylation was observed, with apparent Km values ranging from <2 μM for the phospho-middle t sequence to >2 mM for pTyr itself (Table 3).
# Several phosphono peptides were tested for the ability to inhibit PTPase 1B activity and KI values determined by methods known to those skilled in the art.
# T2 sequence (P26450 whole entry): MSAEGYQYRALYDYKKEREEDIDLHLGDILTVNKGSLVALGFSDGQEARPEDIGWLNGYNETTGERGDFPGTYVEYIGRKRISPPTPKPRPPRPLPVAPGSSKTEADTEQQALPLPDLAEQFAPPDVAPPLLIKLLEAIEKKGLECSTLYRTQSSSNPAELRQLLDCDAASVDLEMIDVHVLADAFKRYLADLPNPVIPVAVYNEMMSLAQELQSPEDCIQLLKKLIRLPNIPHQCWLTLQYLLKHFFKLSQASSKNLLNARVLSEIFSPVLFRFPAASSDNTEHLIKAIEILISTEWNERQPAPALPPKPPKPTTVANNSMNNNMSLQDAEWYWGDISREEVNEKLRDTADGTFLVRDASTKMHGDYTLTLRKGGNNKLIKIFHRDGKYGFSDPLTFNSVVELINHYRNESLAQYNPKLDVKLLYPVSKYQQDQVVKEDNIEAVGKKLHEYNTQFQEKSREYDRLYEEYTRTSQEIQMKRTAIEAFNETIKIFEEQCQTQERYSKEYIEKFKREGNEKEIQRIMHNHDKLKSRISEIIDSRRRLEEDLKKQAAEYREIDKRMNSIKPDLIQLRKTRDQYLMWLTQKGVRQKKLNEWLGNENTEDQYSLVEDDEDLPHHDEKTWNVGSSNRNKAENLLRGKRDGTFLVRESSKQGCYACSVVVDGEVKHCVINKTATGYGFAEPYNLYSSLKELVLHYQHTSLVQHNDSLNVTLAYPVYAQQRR
# T1 sequence (Q63787 whole entry, one chain of several): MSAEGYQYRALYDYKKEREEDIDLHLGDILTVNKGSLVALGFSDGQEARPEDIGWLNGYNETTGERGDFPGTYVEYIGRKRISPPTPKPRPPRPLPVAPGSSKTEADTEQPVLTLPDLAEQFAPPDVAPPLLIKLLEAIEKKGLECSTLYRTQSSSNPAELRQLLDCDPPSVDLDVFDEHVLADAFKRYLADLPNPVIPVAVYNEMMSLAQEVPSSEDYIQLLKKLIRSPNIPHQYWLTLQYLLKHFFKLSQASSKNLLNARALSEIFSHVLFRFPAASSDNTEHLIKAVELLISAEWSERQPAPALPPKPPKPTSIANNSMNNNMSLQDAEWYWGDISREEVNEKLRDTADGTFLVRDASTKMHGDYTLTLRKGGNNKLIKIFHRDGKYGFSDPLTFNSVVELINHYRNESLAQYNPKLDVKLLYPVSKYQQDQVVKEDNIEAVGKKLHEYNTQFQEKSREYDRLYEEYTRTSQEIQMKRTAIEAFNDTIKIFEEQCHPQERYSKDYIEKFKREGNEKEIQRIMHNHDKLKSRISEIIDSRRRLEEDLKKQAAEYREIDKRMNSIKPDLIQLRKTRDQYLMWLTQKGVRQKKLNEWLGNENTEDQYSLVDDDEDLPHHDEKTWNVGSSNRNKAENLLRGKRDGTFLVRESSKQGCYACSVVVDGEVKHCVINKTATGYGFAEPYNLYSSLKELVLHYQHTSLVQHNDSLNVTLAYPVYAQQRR
# T3 sequence (P27986 333-428 limits assumed): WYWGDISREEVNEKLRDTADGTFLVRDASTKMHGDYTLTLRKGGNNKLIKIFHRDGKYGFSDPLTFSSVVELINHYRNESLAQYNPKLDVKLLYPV
# Chain of SH2 domain of Src (P12931 151-248 limits assumed): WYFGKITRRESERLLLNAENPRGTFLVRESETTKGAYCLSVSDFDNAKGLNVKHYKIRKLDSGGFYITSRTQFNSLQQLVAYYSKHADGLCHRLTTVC
compound,measurement,setting,value
"RENEYMPMAPQIH [unphosphorylated peptide, unphosphorylated version of the hamster mT peptide]","effect on association of labelled proteins (110 kDa doublet, 85 kDa) with mT/pp60^c-src",[1],did not affect this association
same,effect on association of PtdIns 3-kinase with mT/pp60^c-src,[2]; listed as non-phosphorylated peptide,had no effect on the association
same,effect on association of PtdIns 3-kinase with mT/pp60^c-src,[2]; listed as unphosphorylated version of the peptide,did not affect the association
same,activity on association between pp60^c-grc /mT and PI 3-kinase,[3],no detectable activity
"CSCC[C@H](NC(=O)[C@@H]1CCCN1C(=O)[C@H](CCSC)NC(=O)[C@H](Cc1ccc(OP(=O)(O)O)cc1)NC(=O)[C@H](CCC(=O)O)NC(=O)[C@H](CCC(=O)O)NC(=O)[C@@H](N)CCC(=O)O)C(=O)N[C@@H](CCC(=O)O)C(=O)N[C@@H](CC(=O)O)C(=O)N[C@@H](CC(C)C)C(=O)N[C@@H](Cc1ccc(O)cc1)C(=O)O [mT-pY315, EEEpYMPMEDLY] (H-EEE[pY]MPMEDLY-OH)",estimated KD,[4],0.01 µM
same,inhibition of association between pp60^c-grc /mT and PI 3-kinase,[5],obliterated in the absence of vanadate
GXVPML (Pmp): peptide GXVPML (SEQ ID NO: 45) with X = Pmp (G[Pmp]VPML),ED50,[6],1.0 ± 0.1 µM
CC[C@H](C)[C@H](NC(=O)[C@H](CCC(=O)O)NC(=O)[C@H](CCC(=O)O)NC(=O)[C@H](Cc1ccc(OP(=O)(O)O)cc1)NC(=O)[C@H](CCC(N)=O)NC(C)=O)C(=O)N1CCC[C@H]1C(N)=O [QXEEIP (pTyr)] (Ac-Q[pY]EEIP-NH2),IC50,[7],5.7 ± 0.7 µM
"N[C@@H](Cc1ccc(OP(=O)(O)O)cc1)C(=O)O [phosphotyrosine, reference compound]",side chain pK3,[8],5.7
same,Km,[9]; apparent Km as substrate,> 2000 µM
same,Km,"[9]; apparent Km, phosphotyrosine and pY-peptides as substrates",> 2000 µM
